Data from patent US4731109A, “Herbicidal 2-haloacetanilides” (Monsanto Company, priority 1982, dated 1988).

Assays:
[1] = test system: shattercane; test: Greenhouse pre-emergence GR15/GR85 selectivity test; assay type: in vivo; settings: Table XVI
Text: (§1) A good grade of top soil is placed in aluminum pans and compacted to a depth of three-eighths to one-half inch from the top of the pan. On the top of the soil is placed a number of seeds or vegetative propagules of various plant species. The soil required to level fill the pans after seeding or adding vegetative propagules is weighed into a pan. The soil and a known amount of the active ingredient applied in a solvent or as a wettable powder suspension are thoroughly mixed, and used to cover the prepared pans. […] As an alternative procedure, the overhead irrigation may be omitted. Observations are made about 2-3 weeks after seeding and treatment.
(§2) A further guide to the effectiveness of a chemical as a selective herbicide is the "selectivity factor" ("SF") for a herbicide in given crops and weeds. The selectivity factor is a measure of the relative degree of crop safety and weed injury and is expressed in terms of the GR15 /GR85 ratio, i.e., the GR15 rate for the crop divided by the GR85 rate for the weed, both rates in kg/ha (lb/A). In the tables below, selectivity factors are shown in parenthesis following the GR85 rate for each weed; the symbol "NS" indicates "non-selective". Marginal or undetermined selectivity is indicated by a dash (--).
(§3) Unless otherwise noted; greenhouse tests in Table VI and in other tables below involved herbicide treatments by soil incorporation and an initial overhead irrigation followed by subirrigation as described above.

[2] = test system: itchgrass; test: as above; assay type: in vivo; settings: Table XVI
Text: as §1, §2, §3

[3] = test system: Texas panicum; test: as above; assay type: in vivo; settings: Table XVI
Text: as §1, §2, §3

[4] = test system: alexandergrass; test: as above; assay type: in vivo; settings: Table XV; for selectivity factor (GR15/GR85): in rape
Text: as §1, §2, §3

[5] = test system: red rice; test: as above; assay type: in vivo; settings: Table XVI
Text: as §1, §2, §3

[6] = test system: seedling johnsongrass; test: as above; assay type: in vivo; settings: Table XVI
Text: as §1, §2, §3

[7] = test system: fall panicum; test: as above; assay type: in vivo; settings: Table XVI
Text: as §1, §2, §3

[8] = test system: corn; test: as above; assay type: in vivo; settings: Table IV
Text: (§4) A good grade of top soil is placed in aluminum pans and compacted to a depth of three-eighths to one-half inch from the top of the pan. On the top of the soil is placed a number of seeds or vegetative propagules of various plant species. The soil required to level fill the pans after seeding or adding vegetative propagules is weighed into a pan. The soil and a known amount of the active ingredient applied in a solvent or as a wettable powder suspension are thoroughly mixed, and used to cover the prepared pans. After treatment, the pans are given an initial overhead irrigation of eater, equivalent to one-fourth inch (0.64 cm) rainfall, then watered by subirrigation as need to give adequate moisture for germination and growth. As an alternative procedure, the overhead irrigation may be omitted. Observations are made about 2-3 weeks after seeding and treatment.
(§5) In the discussion and tables of data below, reference is made to herbicide application rates symbolized as "GR15 " and "GR85 "; these rates are given in kilograms per hectare (kg/ha) which are convertible into pounds per acre (lbs/A) by dividing the kg/ha rate by 1.12.
as §2
In Table IV pre-emergence herbicidal activity data are presented comparing the relative efficacy of the invention compounds and said prior art compounds as selective herbicides against the resistant and troublesome perennial weeds quackgrass and yellow nutsedge in soybeans and corn, respectively. These weeds are commonly associated with such major crops as corn and soybeans. The test data in Table IV were obtained under identical procedural conditions and represent two replicate runs (except for the compound of Example 9 which was present in one comparative test). The test procedure was the same as described for Tables II and III but modified by the application of an initial overhead irrigation equivalent to 1/4" (0.64 cm) rainfall; subsequent watering was accomplished by subirrigation. "NS" means non-selective within the test limits.
(§6) Additionally, pre-emergence herbicidal data from other tests have established that compounds according to this invention also selectively suppress quackgrass, yellow nutsedge and/or other weeds in one or more of the crops cotton, peanuts, bush beans and/or rape. For example, in Table VI are presented data showing the herbicidal selectivity of the compounds of Examples 1 and 2 against quackgrass in rape and snap beans. Unless otherwise noted; greenhouse tests in Table VI and in other tables below involved herbicide treatments by soil incorporation and an initial overhead irrigation followed by subirrigation as described above.

[9] = test system: wild proso millet; test: as above; assay type: in vivo, wild proso millet (panicum milicaeum); settings: Table XVI
Text: as §1, §2, §3

[10] = test system: Quackgrass; test: Herbicidal effect in a variety of soil types; assay type: in vivo; settings: Table XVII B; for selectivity factor (GR15/GR85): in soybeans
[11] = test system: rape; test: Greenhouse pre-emergence GR15/GR85 selectivity test; assay type: in vivo; settings: Table XV
Text: as §4, §5, §2, §6
(§7) In another greenhouse test, the compounds of Examples 3-5, 9 and 10 were tested for their herbicidal efficacy against a variety of resistant annual and perennial weeds in rape.

[12] = test system: purple nutsedge; test: as above; assay type: in vivo; settings: Table XV; for selectivity factor (GR15/GR85): in rape
Text: as §4, §5, §2, §6
In other greenhouse tests, compounds according to this invention have shown selective control of a variety of annual and perennial weeds in various crops. As further illustrative, the compound of Example 1 selectively controlled purple nutsedge in both corn nd soybeans, the respective crop/weed GR15 /GR85 ratios (expressed in kg/ha) being 0.67/0.25 (S.F.=2.7) in corn and 1.1/0.25 (S.F.=4.5) in soybeans. The compound of Example 8 has shown selective control of yellow nutsedge and quackgrass in corn and soybeans. The respective crop/yellownutsedge GR15 /GR85 ratios being >2.2/0.95 (S.F.=2.5) in corn; 2.2/0.5 (SF=4.5) in soybeans and the respective GR15 /GR85 ratios for both corn and soybeans in quackgrass being >2.2/0.5 (S.F.=4.5). In a test against yellow nutsedge in cotton, the GR15 /GR85 ratio (average of two replicates) was 2.0/0.95 (S.F.=2).
as §7

SMILES	GR85 Rate [1] [Kg/Ha]	selectivity factor (GR15/GR85) ([1]; in lima beans)	selectivity factor (GR15/GR85) ([1]; in peanuts)	GR85 Rate [2] [Kg/Ha]	selectivity factor (GR15/GR85) ([2]; in lima beans)	selectivity factor (GR15/GR85) ([2]; in peanuts)	GR85 Rate [3] [Kg/Ha]	selectivity factor (GR15/GR85) ([3]; in lima beans)	selectivity factor (GR15/GR85) ([3]; in peanuts)	GR85 Rate [4] [Kg/Ha]	selectivity factor (GR15/GR85) [4]	GR85 Rate [5] [Kg/Ha]	selectivity factor (GR15/GR85) ([5]; in lima beans)	selectivity factor (GR15/GR85) ([5]; in peanuts)	GR85 Rate [6] [Kg/Ha]	selectivity factor (GR15/GR85) ([6]; in lima beans)	selectivity factor (GR15/GR85) ([6]; in peanuts)	GR85 Rate [7] [Kg/Ha]	selectivity factor (GR15/GR85) ([7]; in lima beans)	selectivity factor (GR15/GR85) ([7]; in peanuts)	further results
CCCOCN(C(=O)CCl)c1c(C)cccc1C(F)(F)F [Example 3, N--(n-propoxymethyl)-2'-trifluoromethyl-6'-methyl-2-chloroacetanilide]	0.11	4.5	> 10.2	0.51	NS (non-selective)	> 2.2	0.43	1.1	> 2.6	0.14	6.3	0.37	1.3	> 3	0.23	2.1	> 4.9	0.08	6	> 14	GR15 ([8]; Replicate #1): 0.78 Kg/Ha; GR15 ([8]; Replicate #2): 0.73 Kg/Ha; GR85 Rate [9]: 0.27 Kg/Ha; selectivity factor (GR15/GR85) ([9]; in lima beans): 1.8; selectivity factor (GR15/GR85) ([9]; in peanuts): > 4.2; GR85 ([10]; Florida muck): 1.1 Kg/Ha; GR85 ([10]; Florida sand): 0.72 Kg/Ha; GR85 ([10]; Wabash silty clay): 0.22 Kg/Ha; selectivity factor (GR15/GR85) ([10]; Florida muck): > 2; selectivity factor (GR15/GR85) ([10]; Florida sand): 2.5; selectivity factor (GR15/GR85) ([10]; Wabash silty clay): 9; GR15 Rate [11]: 0.90 Kg/Ha; GR85 Rate [12]: 0.12 Kg/Ha; selectivity factor (GR15/GR85) [12]: 7.5
Cc1cccc(C(F)(F)F)c1N(COC(C)C)C(=O)CCl [Example 4, N--(isopropoxymethyl)-2'-trifluoromethyl-6'-methyl-2-chloroacetanilide]	0.51	> 2.2	1.9	0.50	> 2.2	2	0.56	> 2	1.8	0.42	> 2.7	0.42	> 2.7	2.3	0.51	> 2.2	1.9	0.13	> 8.6	7.5	GR15 ([8]; Replicate #1): 1.7 Kg/Ha; GR15 ([8]; Replicate #2): 2.0 Kg/Ha; GR85 Rate [9]: 0.47 Kg/Ha; selectivity factor (GR15/GR85) ([9]; in lima beans): > 2.4; selectivity factor (GR15/GR85) ([9]; in peanuts): 2.1; GR85 ([10]; Drummer silty clay): 0.11 Kg/Ha; GR85 ([10]; Florida muck): 0.67 Kg/Ha; GR85 ([10]; Florida sand): 0.25 Kg/Ha; GR85 ([10]; Ray silt loam): 0.13 Kg/Ha; GR85 ([10]; Sarpy silty clay): 0.39 Kg/Ha; GR85 ([10]; Wabash silty clay): 0.24 Kg/Ha; selectivity factor (GR15/GR85) ([10]; Drummer silty clay): 20; selectivity factor (GR15/GR85) ([10]; Florida muck): > 3; selectivity factor (GR15/GR85) ([10]; Florida sand): 9; selectivity factor (GR15/GR85) ([10]; Ray silt loam): 23; selectivity factor (GR15/GR85) ([10]; Sarpy silty clay): 5.5; selectivity factor (GR15/GR85) ([10]; Wabash silty clay): 12.5; GR15 Rate [11]: > 1.12 Kg/Ha; GR85 Rate [12]: 0.25 Kg/Ha; selectivity factor (GR15/GR85) [12]: > 4.5
